Source: PubChem BioAssay (NCI)
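1) Cells in 96-well plates. 2) Compound, 48 h, 5 concentrations. 3) Linear interpolation between surrounding doses. 4) Unreached endpoint = highest concentration. The concentration for full growth arrest is given as TGI.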

Columns and labels:
Assay in all cases: growth of human tumour cells (NCI), 48 h
786-0 renal = tested on: 786-0 renal
A498 renal = tested on: A498 renal
ACHN renal = tested on: ACHN renal
BT-549 breast = tested on: BT-549 breast
CAKI-1 renal = tested on: CAKI-1 renal
CCRF-CEM leukemia = tested on: CCRF-CEM leukemia
COLO 205 colon = tested on: COLO 205 colon
DU-145 prostate = tested on: DU-145 prostate
EKVX NSCLC = tested on: EKVX NSCLC
HCC-2998 colon = tested on: HCC-2998 colon
HCT-116 colon = tested on: HCT-116 colon
HCT-15 colon = tested on: HCT-15 colon
HL-60(TB) leukemia = tested on: HL-60(TB) leukemia
HOP-62 NSCLC = tested on: HOP-62 NSCLC
HOP-92 NSCLC = tested on: HOP-92 NSCLC
HS 578T breast = tested on: HS 578T breast
HT29 colon = tested on: HT29 colon
IGROV1 ovarian = tested on: IGROV1 ovarian
K-562 leukemia = tested on: K-562 leukemia
KM12 colon = tested on: KM12 colon
LOX IMVI melanoma = tested on: LOX IMVI melanoma
M14 melanoma = tested on: M14 melanoma
MALME-3M melanoma = tested on: MALME-3M melanoma
MCF7 breast = tested on: MCF7 breast
MDA-MB-231 breast = tested on: MDA-MB-231 breast
MDA-MB-435 = tested on: MDA-MB-435
MDA-N = tested on: MDA-N
NCI-H226 lung = tested on: NCI-H226 lung
NCI-H23 lung = tested on: NCI-H23 lung
NCI-H460 lung = tested on: NCI-H460 lung
NCI-H522 lung = tested on: NCI-H522 lung
NCI/ADR-RES ovarian = tested on: NCI/ADR-RES ovarian
OVCAR-3 ovarian = tested on: OVCAR-3 ovarian
OVCAR-4 ovarian = tested on: OVCAR-4 ovarian
OVCAR-5 ovarian = tested on: OVCAR-5 ovarian
OVCAR-8 ovarian = tested on: OVCAR-8 ovarian
PC-3 prostate = tested on: PC-3 prostate
RPMI-8226 leukemia = tested on: RPMI-8226 leukemia
RXF 393 renal = tested on: RXF 393 renal
SF-268 CNS = tested on: SF-268 CNS
SF-295 CNS = tested on: SF-295 CNS
SF-539 CNS = tested on: SF-539 CNS
SK-MEL-2 melanoma = tested on: SK-MEL-2 melanoma
SK-MEL-28 melanoma = tested on: SK-MEL-28 melanoma
SK-MEL-5 melanoma = tested on: SK-MEL-5 melanoma
SK-OV-3 ovarian = tested on: SK-OV-3 ovarian
SN12C renal = tested on: SN12C renal
SNB-19 CNS = tested on: SNB-19 CNS
SNB-75 CNS = tested on: SNB-75 CNS
SR leukemia = tested on: SR leukemia
SW-620 colon = tested on: SW-620 colon
T-47D breast = tested on: T-47D breast
TK-10 renal = tested on: TK-10 renal
U251 CNS = tested on: U251 CNS
UACC-257 melanoma = tested on: UACC-257 melanoma
UACC-62 melanoma = tested on: UACC-62 melanoma
UO-31 renal = tested on: UO-31 renal
A549 NSCLC = tested on: A549 NSCLC
MOLT-4 leukemia = tested on: MOLT-4 leukemia

## Cn1c(=O)c2nc3c(=O)n(C)c(=O)n(CC(N)=O)c3nc2n(C)c1=O
786-0 renal
  TGI: > 100 µM
A498 renal
  TGI: > 100 µM
ACHN renal
  TGI: > 100 µM
BT-549 breast
  TGI: > 100 µM
CAKI-1 renal
  TGI: > 100 µM
CCRF-CEM leukemia
  TGI: > 100 µM
COLO 205 colon
  TGI: > 100 µM
DU-145 prostate
  TGI: > 100 µM
EKVX NSCLC
  TGI: > 100 µM
HCC-2998 colon
  TGI: > 100 µM
HCT-116 colon
  TGI: > 100 µM
HCT-15 colon
  TGI: > 100 µM
HL-60(TB) leukemia
  TGI: > 100 µM
HOP-62 NSCLC
  TGI: > 100 µM
HOP-92 NSCLC
  TGI: > 100 µM
HS 578T breast
  TGI: > 100 µM
HT29 colon
  TGI: > 100 µM
IGROV1 ovarian
  TGI: > 100 µM
K-562 leukemia
  TGI: > 100 µM
KM12 colon
  TGI: > 100 µM
LOX IMVI melanoma
  TGI: > 100 µM
M14 melanoma
  TGI: > 100 µM
MALME-3M melanoma
  TGI: > 100 µM
MCF7 breast
  TGI: > 100 µM
MDA-MB-231 breast
  TGI: > 100 µM
MDA-MB-435
  TGI: > 100 µM
MDA-N
  TGI: > 100 µM
NCI-H226 lung
  TGI: > 100 µM
NCI-H23 lung
  TGI: > 100 µM
NCI-H460 lung
  TGI: > 100 µM
NCI-H522 lung
  TGI: > 100 µM
NCI/ADR-RES ovarian
  TGI: > 100 µM
OVCAR-3 ovarian
  TGI: > 100 µM
OVCAR-4 ovarian
  TGI: > 100 µM
OVCAR-5 ovarian
  TGI: > 100 µM
OVCAR-8 ovarian
  TGI: > 100 µM
PC-3 prostate
  TGI: > 100 µM
RPMI-8226 leukemia
  TGI: > 100 µM
RXF 393 renal
  TGI: > 100 µM
SF-268 CNS
  TGI: > 100 µM
SF-295 CNS
  TGI: > 100 µM
SF-539 CNS
  TGI: > 100 µM
SK-MEL-2 melanoma
  TGI: > 100 µM
SK-MEL-28 melanoma
  TGI: > 100 µM
SK-MEL-5 melanoma
  TGI: > 100 µM
SK-OV-3 ovarian
  TGI: > 100 µM
SN12C renal
  TGI: > 100 µM
SNB-19 CNS
  TGI: > 100 µM
SNB-75 CNS
  TGI: > 100 µM
SR leukemia
  TGI: > 100 µM
SW-620 colon
  TGI: > 100 µM
T-47D breast
  TGI: > 100 µM
TK-10 renal
  TGI: > 100 µM
U251 CNS
  TGI: > 100 µM
UACC-257 melanoma
  TGI: > 100 µM
UACC-62 melanoma
  TGI: > 100 µM
UO-31 renal
  TGI: > 100 µM

## CC1=C(C)C(=O)O[C@@H]([C@](C)(O)[C@]2(O)CC[C@@]3(O)[C@@H]4C[C@H](O)[C@]5(O)[C@@H](O)C=CC(=O)[C@]5(C)[C@H]4CC[C@]23C)C1
786-0 renal
  TGI: > 100 µM
A498 renal
  TGI: > 100 µM
A549 NSCLC
  TGI: > 100 µM
ACHN renal
  TGI: > 100 µM
BT-549 breast
  TGI: > 100 µM
CAKI-1 renal
  TGI: > 100 µM
CCRF-CEM leukemia
  TGI: 89.5 µM
COLO 205 colon
  TGI: > 100 µM
DU-145 prostate
  TGI: > 100 µM
EKVX NSCLC
  TGI: > 100 µM
HCC-2998 colon
  TGI: > 100 µM
HCT-116 colon
  TGI: > 100 µM
HCT-15 colon
  TGI: > 100 µM
HL-60(TB) leukemia
  TGI: 56.8 µM
HOP-62 NSCLC
  TGI: > 100 µM
HOP-92 NSCLC
  TGI: > 100 µM
HS 578T breast
  TGI: > 100 µM
HT29 colon
  TGI: > 100 µM
IGROV1 ovarian
  TGI: > 100 µM
K-562 leukemia
  TGI: > 100 µM
KM12 colon
  TGI: > 100 µM
LOX IMVI melanoma
  TGI: > 100 µM
M14 melanoma
  TGI: > 100 µM
MALME-3M melanoma
  TGI: > 100 µM
MCF7 breast
  TGI: > 100 µM
MDA-MB-231 breast
  TGI: > 100 µM
MDA-MB-435
  TGI: > 100 µM
MDA-N
  TGI: > 100 µM
MOLT-4 leukemia
  TGI: > 100 µM
NCI-H226 lung
  TGI: > 100 µM
NCI-H23 lung
  TGI: > 100 µM
NCI-H460 lung
  TGI: > 100 µM
NCI-H522 lung
  TGI: > 100 µM
OVCAR-3 ovarian
  TGI: > 100 µM
OVCAR-4 ovarian
  TGI: > 100 µM
OVCAR-5 ovarian
  TGI: > 100 µM
OVCAR-8 ovarian
  TGI: > 100 µM
PC-3 prostate
  TGI: > 100 µM
RPMI-8226 leukemia
  TGI: > 100 µM
RXF 393 renal
  TGI: > 100 µM
SF-268 CNS
  TGI: > 100 µM
SF-295 CNS
  TGI: > 100 µM
SF-539 CNS
  TGI: > 100 µM
SK-MEL-2 melanoma
  TGI: > 100 µM
SK-MEL-28 melanoma
  TGI: > 100 µM
SK-MEL-5 melanoma
  TGI: > 100 µM
SK-OV-3 ovarian
  TGI: > 100 µM
SN12C renal
  TGI: > 100 µM
SNB-19 CNS
  TGI: > 100 µM
SNB-75 CNS
  TGI: > 100 µM
SR leukemia
  TGI: 84.3 µM
SW-620 colon
  TGI: > 100 µM
T-47D breast
  TGI: > 100 µM
TK-10 renal
  TGI: > 100 µM
U251 CNS
  TGI: > 100 µM
UACC-257 melanoma
  TGI: > 100 µM
UACC-62 melanoma
  TGI: > 100 µM
UO-31 renal
  TGI: > 100 µM

## COc1ccccc1C(=O)NO
786-0 renal
  TGI: > 100 µM
A549 NSCLC
  TGI: > 100 µM
ACHN renal
  TGI: > 100 µM
BT-549 breast
  TGI: > 100 µM
CAKI-1 renal
  TGI: > 100 µM
CCRF-CEM leukemia
  TGI: > 100 µM
COLO 205 colon
  TGI: > 100 µM
DU-145 prostate
  TGI: > 100 µM
EKVX NSCLC
  TGI: > 100 µM
HCC-2998 colon
  TGI: > 100 µM
HCT-116 colon
  TGI: > 100 µM
HCT-15 colon
  TGI: > 100 µM
HL-60(TB) leukemia
  TGI: > 100 µM
HOP-62 NSCLC
  TGI: > 100 µM
HS 578T breast
  TGI: > 100 µM
HT29 colon
  TGI: > 100 µM
IGROV1 ovarian
  TGI: > 100 µM
K-562 leukemia
  TGI: > 100 µM
KM12 colon
  TGI: > 100 µM
LOX IMVI melanoma
  TGI: > 100 µM
M14 melanoma
  TGI: > 100 µM
MCF7 breast
  TGI: > 100 µM
MDA-MB-231 breast
  TGI: > 100 µM
MDA-MB-435
  TGI: > 100 µM
MDA-N
  TGI: > 100 µM
MOLT-4 leukemia
  TGI: > 100 µM
NCI-H226 lung
  TGI: > 100 µM
NCI-H23 lung
  TGI: > 100 µM
NCI-H460 lung
  TGI: > 100 µM
NCI-H522 lung
  TGI: > 100 µM
NCI/ADR-RES ovarian
  TGI: > 100 µM
OVCAR-3 ovarian
  TGI: > 100 µM
OVCAR-4 ovarian
  TGI: > 100 µM
OVCAR-5 ovarian
  TGI: > 100 µM
OVCAR-8 ovarian
  TGI: > 100 µM
PC-3 prostate
  TGI: > 100 µM
RPMI-8226 leukemia
  TGI: > 100 µM
RXF 393 renal
  TGI: > 100 µM
SF-268 CNS
  TGI: > 100 µM
SF-295 CNS
  TGI: > 100 µM
SK-MEL-2 melanoma
  TGI: > 100 µM
SK-MEL-28 melanoma
  TGI: > 100 µM
SK-MEL-5 melanoma
  TGI: > 100 µM
SK-OV-3 ovarian
  TGI: > 100 µM
SN12C renal
  TGI: > 100 µM
SNB-19 CNS
  TGI: > 100 µM
SNB-75 CNS
  TGI: > 100 µM
SR leukemia
  TGI: > 100 µM
SW-620 colon
  TGI: > 100 µM
T-47D breast
  TGI: > 100 µM
TK-10 renal
  TGI: > 100 µM
U251 CNS
  TGI: > 100 µM
UACC-257 melanoma
  TGI: > 100 µM
UACC-62 melanoma
  TGI: > 100 µM
UO-31 renal
  TGI: > 100 µM
